Test: Plasma TPTD concentration and pharmacokinetics (Rat PTH IRMA Kit, non-compartmental model)
Type: in vivo, rabbit
From the text: Seventeen female New Zealand White rabbits (Kbl:NZW) were purchased from Kitayama Labs (Nagano, Japan) and were allowed to acclimatize with free access to water and food for 6 days before use. Throughout the experimental study, the animals were housed individually under a 12-h light/dark cycle with free access to water, but their food intake was restricted to 120g /day (LRC4, standard diet for rabbits; Oriental Yeast, Tokyo, Japan). The animals at 6 months of age were divided into 5 groups and were subcutaneously injected with 20 or 40 μg/kg of TPTD once-daily (D20 group [n = 3] and D40 group [n = 3], 140 or 280 μg/kg of TPTD once-weekly (W140 group [n = 3] and W280 group [n = 4]) for four weeks (Table 1). For the high-dose administration of TPTD, the dosage in once-daily treatment was set at 40 μg/kg/day based on a previous study, while the dosage of once-weekly TPTD treatment was set at 280 μg/kg/week; thus, the cumulative dose of TPTD each week was the same with the two treatment frequencies. In the W140 and W280 groups, saline was administered every day, except for the days on which TPTD was administered. Saline injections were administered to control animals (C group, n = 4) once daily and to each group as a vehicle.
[…] The samples were centrifuged at 1600 x g, at 4°C for 10 minutes and plasma samples were collected in order to measure the concentration of TPTD. […]
Teriparatide acetate was synthesized at Asahi Kasei Pharma Corporation (Tokyo, Japan) and was used as a standard substance. The teriparatide acetate concentration in the rabbit plasma was quantified using a Rat PTH IRMA Kit (Immutopics, Inc., San Clemente, CA) according to the manufacturer’s instructions. The pharmacokinetic parameters were calculated using a non-compartmental model (Phoenix WinNonlin; Pharsight, Mountain View, CA).

time for plasma TPTD levels to return to the basal levels (all of the dosage regimens): ≤ 3 h | plasma TPTD concentration relative to Cmax by 2h (all regimens (D20, D40, W140, W280), 2h post-dose): less than 40 % of Cmax | level at 5 min (female, New Zealand White (Kbl:NZW), rabbit, plasma, sc, 20 ug/kg, Day 1, 5 min, D20 (20 μg/kg sc once-daily), n=3, IRMA, mean): 0.00714 µg/mL | level at 0.25 h (female, New Zealand White (Kbl:NZW), rabbit, plasma, sc, 20 ug/kg, Day 1, 15 min, D20 (20 μg/kg sc once-daily), n=3, IRMA, mean): 0.0149 µg/mL | level at 0.5 h (female, New Zealand White (Kbl:NZW), rabbit, plasma, sc, 20 ug/kg, Day 1, 30 min, D20 (20 μg/kg sc once-daily), n=3, IRMA, mean): 0.0198 µg/mL | level at 1 h (female, New Zealand White (Kbl:NZW), rabbit, plasma, sc, 20 ug/kg, Day 1, 1 hour, D20 (20 μg/kg sc once-daily), n=3, IRMA, mean): 0.0118 µg/mL | level at 2 h (female, New Zealand White (Kbl:NZW), rabbit, plasma, sc, 20 ug/kg, Day 1, 2 hour, D20 (20 μg/kg sc once-daily), n=3, IRMA, mean): 0.00177 µg/mL | level at 5 min (female, New Zealand White (Kbl:NZW), rabbit, plasma, sc, 20 ug/kg, Day 22, 5 min, D20 (20 μg/kg sc once-daily), n=3, IRMA, mean): 0.00706 µg/mL | level at 0.25 h (female, New Zealand White (Kbl:NZW), rabbit, plasma, sc, 20 ug/kg, Day 22, 15 min, D20 (20 μg/kg sc once-daily), n=3, IRMA, mean): 0.017 µg/mL | level at 0.5 h (female, New Zealand White (Kbl:NZW), rabbit, plasma, sc, 20 ug/kg, Day 22, 30 min, D20 (20 μg/kg sc once-daily), n=3, IRMA, mean): 0.0246 µg/mL | level at 1 h (female, New Zealand White (Kbl:NZW), rabbit, plasma, sc, 20 ug/kg, Day 22, 1 hour, D20 (20 μg/kg sc once-daily), n=3, IRMA, mean): 0.0205 µg/mL | level at 2 h (female, New Zealand White (Kbl:NZW), rabbit, plasma, sc, 20 ug/kg, Day 22, 2 hour, D20 (20 μg/kg sc once-daily), n=3, IRMA, mean): 0.0038 µg/mL | level at 24 h (female, New Zealand White (Kbl:NZW), rabbit, plasma, sc, 20 ug/kg, Day 22, 24 hour, D20 (20 μg/kg sc once-daily), n=3, IRMA, mean): 0.00013 µg/mL | level at 5 min (female, New Zealand White (Kbl:NZW), rabbit, plasma, sc, 40 ug/kg, Day 1, 5 min, D40 (40 μg/kg sc once-daily), n=3, IRMA, mean): 0.00983 µg/mL | level at 0.25 h (female, New Zealand White (Kbl:NZW), rabbit, plasma, sc, 40 ug/kg, Day 1, 15 min, D40 (40 μg/kg sc once-daily), n=3, IRMA, mean): 0.0236 µg/mL | level at 0.5 h (female, New Zealand White (Kbl:NZW), rabbit, plasma, sc, 40 ug/kg, Day 1, 30 min, D40 (40 μg/kg sc once-daily), n=3, IRMA, mean): 0.0343 µg/mL | level at 1 h (female, New Zealand White (Kbl:NZW), rabbit, plasma, sc, 40 ug/kg, Day 1, 1 hour, D40 (40 μg/kg sc once-daily), n=3, IRMA, mean): 0.0299 µg/mL | level at 2 h (female, New Zealand White (Kbl:NZW), rabbit, plasma, sc, 40 ug/kg, Day 1, 2 hour, D40 (40 μg/kg sc once-daily), n=3, IRMA, mean): 0.0106 µg/mL | level at 5 min (female, New Zealand White (Kbl:NZW), rabbit, plasma, sc, 40 ug/kg, Day 22, 5 min, D40 (40 μg/kg sc once-daily), n=3, IRMA, mean): 0.0103 µg/mL | level at 0.25 h (female, New Zealand White (Kbl:NZW), rabbit, plasma, sc, 40 ug/kg, Day 22, 15 min, D40 (40 μg/kg sc once-daily), n=3, IRMA, mean): 0.0327 µg/mL | level at 0.5 h (female, New Zealand White (Kbl:NZW), rabbit, plasma, sc, 40 ug/kg, Day 22, 30 min, D40 (40 μg/kg sc once-daily), n=3, IRMA, mean): 0.0541 µg/mL | level at 1 h (female, New Zealand White (Kbl:NZW), rabbit, plasma, sc, 40 ug/kg, Day 22, 1 hour, D40 (40 μg/kg sc once-daily), n=3, IRMA, mean): 0.0492 µg/mL | level at 2 h (female, New Zealand White (Kbl:NZW), rabbit, plasma, sc, 40 ug/kg, Day 22, 2 hour, D40 (40 μg/kg sc once-daily), n=3, IRMA, mean): 0.014 µg/mL | level at 5 min (female, New Zealand White (Kbl:NZW), rabbit, plasma, sc, 140 ug/kg, Day 1, 5 min, W140 (140 μg/kg sc once-weekly), n=3, IRMA, mean): 0.038 µg/mL | level at 0.25 h (female, New Zealand White (Kbl:NZW), rabbit, plasma, sc, 140 ug/kg, Day 1, 15 min, W140 (140 μg/kg sc once-weekly), n=3, IRMA, mean): 0.0854 µg/mL | level at 0.5 h (female, New Zealand White (Kbl:NZW), rabbit, plasma, sc, 140 ug/kg, Day 1, 30 min, W140 (140 μg/kg sc once-weekly), n=3, IRMA, mean): 0.132 µg/mL | level at 1 h (female, New Zealand White (Kbl:NZW), rabbit, plasma, sc, 140 ug/kg, Day 1, 1 hour, W140 (140 μg/kg sc once-weekly), n=3, IRMA, mean): 0.121 µg/mL | level at 2 h (female, New Zealand White (Kbl:NZW), rabbit, plasma, sc, 140 ug/kg, Day 1, 2 hour, W140 (140 μg/kg sc once-weekly), n=3, IRMA, mean): 0.0504 µg/mL | level at 5 min (female, New Zealand White (Kbl:NZW), rabbit, plasma, sc, 140 ug/kg, Day 22, 5 min, W140 (140 μg/kg sc once-weekly), n=3, IRMA, mean): 0.0335 µg/mL | level at 0.25 h (female, New Zealand White (Kbl:NZW), rabbit, plasma, sc, 140 ug/kg, Day 22, 15 min, W140 (140 μg/kg sc once-weekly), n=3, IRMA, mean): 0.124 µg/mL | level at 0.5 h (female, New Zealand White (Kbl:NZW), rabbit, plasma, sc, 140 ug/kg, Day 22, 30 min, W140 (140 μg/kg sc once-weekly), n=3, IRMA, mean): 0.202 µg/mL | level at 1 h (female, New Zealand White (Kbl:NZW), rabbit, plasma, sc, 140 ug/kg, Day 22, 1 hour, W140 (140 μg/kg sc once-weekly), n=3, IRMA, mean): 0.147 µg/mL
SMILES: CC[C@H](C)[C@H](NC(=O)[C@H](CCC(=O)O)NC(=O)[C@H](CO)NC(=O)[C@@H](NC(=O)[C@@H](N)CO)C(C)C)C(=O)N[C@@H](CCC(N)=O)C(=O)N[C@@H](CC(C)C)C(=O)N[C@@H](CCSC)C(=O)N[C@@H](Cc1cnc[nH]1)C(=O)N[C@@H](CC(N)=O)C(=O)N[C@@H](CC(C)C)C(=O)NCC(=O)N[C@@H](CCCCN)C(=O)N[C@@H](Cc1cnc[nH]1)C(=O)N[C@@H](CC(C)C)C(=O)N[C@@H](CC(N)=O)C(=O)N[C@@H](CO)C(=O)N[C@@H](CCSC)C(=O)N[C@@H](CCC(=O)O)C(=O)N[C@@H](CCCN=C(N)N)C(=O)N[C@H](C(=O)N[C@@H](CCC(=O)O)C(=O)N[C@@H](Cc1c[nH]c2ccccc12)C(=O)N[C@@H](CC(C)C)C(=O)N[C@@H](CCCN=C(N)N)C(=O)N[C@@H](CCCCN)C(=O)N[C@@H](CCCCN)C(=O)N[C@@H](CC(C)C)C(=O)N[C@@H](CCC(N)=O)C(=O)N[C@@H](CC(=O)O)C(=O)N[C@H](C(=O)N[C@@H](Cc1cnc[nH]1)C(=O)N[C@@H](CC(N)=O)C(=O)N[C@@H](Cc1ccccc1)C(=O)O)C(C)C)C(C)C [TPTD, Teriparatide]
